# Data published in patent publication US6916905B2, “Dmt-Tic di-and tri-peptidic derivatives and related compositions and methods of use” (The United States of America as represented by the …, priority 2000, dated 2005).
# Like-named read-outs stand apart in the source and are kept apart here. Non-standard residues stand in square brackets, D forms with d. Residues, ends and D or L forms follow the SMILES beside them. ξ: configuration not given here. Dmt = Cc1cc(O)cc(C)c1C[C@H](N)C(=O)O; ξDmt = Cc1cc(O)cc(C)c1CC(N)C(=O)O; Tic = O=C(O)[C@@H]1Cc2ccccc2CN1
# What was measured:
# hMDR-1 = hMDR-1 (Homo sapiens, UniProt P08183); assay: Calcein AM assay for Pgp in hMDR-1 transfected G-185 fibroblasts (Example 49); settings: calcein fluorescence
# hMDR-1, sequence (P08183 whole entry): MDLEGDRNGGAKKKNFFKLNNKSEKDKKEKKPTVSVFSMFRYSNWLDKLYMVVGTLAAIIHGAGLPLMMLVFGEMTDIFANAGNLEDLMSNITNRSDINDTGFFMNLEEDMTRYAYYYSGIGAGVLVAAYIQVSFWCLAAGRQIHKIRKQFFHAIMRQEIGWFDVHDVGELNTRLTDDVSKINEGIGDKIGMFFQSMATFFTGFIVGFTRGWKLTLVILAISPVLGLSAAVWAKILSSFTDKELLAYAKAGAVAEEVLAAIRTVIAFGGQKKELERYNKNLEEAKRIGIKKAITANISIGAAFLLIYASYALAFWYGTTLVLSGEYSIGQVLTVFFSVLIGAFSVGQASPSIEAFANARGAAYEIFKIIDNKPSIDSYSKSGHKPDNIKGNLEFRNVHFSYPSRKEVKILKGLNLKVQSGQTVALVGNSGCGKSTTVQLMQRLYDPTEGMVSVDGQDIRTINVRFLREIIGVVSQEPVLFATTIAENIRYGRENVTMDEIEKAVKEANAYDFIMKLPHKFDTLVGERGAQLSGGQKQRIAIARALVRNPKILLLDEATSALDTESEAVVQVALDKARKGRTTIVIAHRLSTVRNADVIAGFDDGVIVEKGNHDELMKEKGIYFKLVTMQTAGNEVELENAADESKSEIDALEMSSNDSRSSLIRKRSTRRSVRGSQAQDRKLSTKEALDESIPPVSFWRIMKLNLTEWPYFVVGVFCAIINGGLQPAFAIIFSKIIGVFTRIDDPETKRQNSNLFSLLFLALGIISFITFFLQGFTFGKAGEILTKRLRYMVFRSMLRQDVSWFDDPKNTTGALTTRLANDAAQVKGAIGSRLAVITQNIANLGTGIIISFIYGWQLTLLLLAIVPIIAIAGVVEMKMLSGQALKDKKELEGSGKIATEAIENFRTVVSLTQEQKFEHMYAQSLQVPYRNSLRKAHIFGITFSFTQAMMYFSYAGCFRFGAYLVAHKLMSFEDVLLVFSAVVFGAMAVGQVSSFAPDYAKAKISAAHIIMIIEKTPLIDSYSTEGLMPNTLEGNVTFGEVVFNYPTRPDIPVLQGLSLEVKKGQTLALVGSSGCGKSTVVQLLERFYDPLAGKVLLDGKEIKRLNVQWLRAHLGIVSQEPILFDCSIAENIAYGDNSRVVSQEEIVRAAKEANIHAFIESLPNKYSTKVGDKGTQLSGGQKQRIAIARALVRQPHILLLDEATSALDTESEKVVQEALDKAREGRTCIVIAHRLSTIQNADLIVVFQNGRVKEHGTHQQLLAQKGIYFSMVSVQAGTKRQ
# Description: Stably transfected G-185 fibroblasts containing hMDR-1 and NIH 3T3 cell lines were grown to confluent monolayers in DMEM containing 4.5 g glucose/1, 10% fetal calf serum, L-glutamine, penicillin (50 units/ml), streptomycin (50 μg/ml) and 1 mM sodium pyruvate in 5% CO2 at 37° C. G-185 cells were maintained in […] colchicine.
# The assay for Pgp is based on the diffusion of non-fluorescent calcein AM across the cell membrane. Calcein AM is then hydrolyzed and accumulates as the fluorescent calcein. In transfected cells expressing excess hMDR-1, Pgp extrudes calcein AM from the cell before hydrolysis occurs; inhibition of hMDR-1 results in the accumulation of intracellular calcein. Transfected G-185 cells and the NIH 3T3 cells were analyzed in triplicate using seven graded dosages of verapamil or the opioid peptides in 96-well plates. Cells (2.5×10^6/well) were incubated in 100 μl culture medium for 15 min at 37° C. and 50 μl of 1 μM calcein AM in PBS, plus 50 μl of verapamil or one of the present inventive compounds in PBS, or 100 μl of PBS alone (control) were added. Cells were mixed and incubated for 15 min at 37° C., then centrifuged for 5 min at 2,000×g, and then washed three times in 200 μl PBS. Cell pellets were resuspended in 200 μl PBS and transferred to white Microfluor Plates (Nunc, Copenhagen, Denmark) in order to measure calcein-specific fluorescence (494 nm absorption; 517 nm emission). Internal controls were carried out with each experiment using verapamil and PBS in order to compare the consistency between cell preparations. Means±SE (error bars) were determined and plotted using Prism™ (GraphPad, San Diego, Calif.).
# μ-opioid receptors = molecular target: T1, μ-opioid receptors (Rattus norvegicus, UniProt P33535); assay: Rat brain synaptosome (P2) binding, [3H]DAGO (Example 47)
# T1 construct: assayed with a rat brain synaptosomal preparation (P2); from tissue; host or cells: rat brain P2 synaptosomes
# T1 sequence (P33535 whole entry): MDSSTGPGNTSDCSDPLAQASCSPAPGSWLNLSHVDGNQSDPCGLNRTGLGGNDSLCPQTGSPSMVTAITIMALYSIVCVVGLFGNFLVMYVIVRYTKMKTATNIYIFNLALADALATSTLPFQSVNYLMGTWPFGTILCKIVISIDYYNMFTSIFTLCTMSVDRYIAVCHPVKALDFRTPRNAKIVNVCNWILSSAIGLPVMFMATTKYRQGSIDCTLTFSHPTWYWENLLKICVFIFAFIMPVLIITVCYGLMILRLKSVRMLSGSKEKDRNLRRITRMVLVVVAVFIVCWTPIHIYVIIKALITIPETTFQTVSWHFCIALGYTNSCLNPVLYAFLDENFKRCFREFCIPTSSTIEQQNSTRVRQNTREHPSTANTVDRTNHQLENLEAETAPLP
# μ receptors = μ receptors (Cavia porcellus, UniProt P97266); assay: Guinea pig ileum (GPI) functional bioassay (Example 48)
# μ receptors, sequence (P97266 whole entry, looked up): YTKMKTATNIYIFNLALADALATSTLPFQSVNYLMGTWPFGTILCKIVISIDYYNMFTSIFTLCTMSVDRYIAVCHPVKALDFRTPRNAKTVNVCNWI
# Description: (§1) The functional bioactivity of the present inventive compounds was assessed using standard functional bioassays of δ and μ activity in MVD and GPI (Salvadori et al. (1995), supra; and Salvadori et al., J. Med. Chem. 36: 3748-3756 (1993)). […] Dose-response curves were obtained (Salvadori et al. (1995), supra) for both tissues. […] Data were derived from at least four independent tissue samples and dose-response curves from which the pA2 values were determined (Salvadori et al. (1997), supra) according to Arunlakshana and Schild (Br. J. Pharmacol. 14: 48-58 (1959)).
# δ-opioid receptors [1] = molecular target: T2, δ-opioid receptors (Rattus norvegicus, UniProt P33533); assay: Rat brain synaptosome (P2) binding, agonist [3H]DPDPE (Example 47); settings: for Agonist K1μ/Kiδ: selectivity, Kiδ from agonist radioligand [3H]DPDPE
# T2 construct: assayed with a rat brain synaptosomal preparation (P2); from tissue; host or cells: rat brain P2 synaptosomes
# T2 sequence (P33533 whole entry): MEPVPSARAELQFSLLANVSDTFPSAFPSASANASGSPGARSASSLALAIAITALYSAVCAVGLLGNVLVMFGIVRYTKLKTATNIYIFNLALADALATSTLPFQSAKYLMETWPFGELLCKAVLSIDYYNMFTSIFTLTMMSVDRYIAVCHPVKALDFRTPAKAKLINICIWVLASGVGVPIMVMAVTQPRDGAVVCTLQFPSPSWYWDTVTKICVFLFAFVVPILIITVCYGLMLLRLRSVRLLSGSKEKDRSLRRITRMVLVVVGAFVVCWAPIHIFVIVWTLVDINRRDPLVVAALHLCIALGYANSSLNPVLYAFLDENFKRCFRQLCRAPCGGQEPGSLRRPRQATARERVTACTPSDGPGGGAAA
# Description: Briefly, the agonists [^3H]DPDPE (30-60 Ci/mmol, NEN-DuPont) and [^3H]DAGO (30-60 Ci/mmol, Amersham) were used to label δ and μ sites, respectively, under saturation binding conditions (2 hrs at 22° C.). Excess unlabeled peptide (2 μM) established non-specific binding levels and the labeled membranes were rapidly filtered on Whatman GF/C glass fibre filters, thoroughly washed, dried and measured for radioactivity using CytoScint (ICN, Irvine, Calif.). […] The affinity constants (Ki) were calculated according to Cheng and Prusoff (Biochem. Pharmacol. 22: 3099-3108 (1973)).
# δ-opioid receptors [2] = molecular target: T2, δ-opioid receptors; assay: Rat brain synaptosome (P2) binding, δ antagonist [3H]N,N(CH3)2-Dmt-Tic-OH (Example 47); settings: for Antagonist K1μ/Kiδ: selectivity, Kiδ from antagonist radioligand [3H]N,N(CH3)2-Dmt-Tic-OH
# δ receptors = δ receptors (Mus musculus, UniProt P32300)
# δ receptors, sequence (P32300 whole entry): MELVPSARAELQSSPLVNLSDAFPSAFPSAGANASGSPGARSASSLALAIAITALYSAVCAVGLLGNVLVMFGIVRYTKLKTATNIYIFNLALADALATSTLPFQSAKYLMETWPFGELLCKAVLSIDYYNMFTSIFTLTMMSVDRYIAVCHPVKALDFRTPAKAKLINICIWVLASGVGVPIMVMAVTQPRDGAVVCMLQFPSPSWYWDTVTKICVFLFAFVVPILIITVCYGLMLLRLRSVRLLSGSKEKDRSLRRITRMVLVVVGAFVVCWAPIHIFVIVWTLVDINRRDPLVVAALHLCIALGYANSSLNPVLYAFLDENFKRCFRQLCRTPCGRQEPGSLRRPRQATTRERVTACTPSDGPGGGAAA
# Description: as §1
# [3] = rat brain synaptosomes (P2), mean ± SEM, n in parentheses, read-out: Kiμ (nM) [^3H]DAGO
# [4] = rat brain synaptosomes (P2), mean ± SEM, n in parentheses, read-out: Kiδ(nM) [^3H]DPDPE
# [5] = rat brain synaptosomes (P2), δ antagonist radioligand, mean ± SEM, n in parentheses, read-out: Kiδ(nM) [^3H]N,N(CH3)2-Dmt-Tic-OH
# [6] = MVD pA2 (range), δ antagonism against deltorphin C, mean (range)
# [7] = δ antagonism, Ke = antilog of pA2
# [8] = MVD Ke(nM), δ antagonism, Ke = antilog of pA2
Compound,"inhibition of hMDR-1 (Pgp), in words (hMDR-1)",Ki (μ-opioid receptors; [3]) [nM],EC50 (μ receptors) [nM],Ki (δ-opioid receptors [1]; [4]) [nM],Agonist K1μ/Kiδ (δ-opioid receptors [1]),Ki (δ-opioid receptors [2]; [5]) [nM],Antagonist K1μ/Kiδ (δ-opioid receptors [2]),also measured
"Cc1cc(O)cc(C[C@H](N)C(=O)N[C@H](Cc2ccccc2)C(=O)NCC(=O)N[C@H](C(=O)N[C@H](C(N)=O)C(C)C)C(C)C)c1C [DPD, H-Dmt-D-Phe-Gly-Val-Val-NH2]",inactive,,,,,,,
"CNC(=O)[C@H](C)NC(=O)[C@@H]1Cc2ccccc2CN1C(=O)[C@@H](N)Cc1c(C)cc(O)cc1C [Compound 18, H-Dmt-Tic-Ala-NHMe] (H-[Dmt]-[Tic]-Ala-NHMe)",,5.75 ± 0.72,290,0.058 ± 0.01,100,0.12 ± 0.04,47,"bioactivity on GPI (μ), in words (μ receptors): very weak δ and μ agonism; EC50 (δ receptors): 1290 nM; bioactivity on MVD (δ), in words (δ receptors): very weak δ and μ agonism"
Oc1ccc2c3c1O[C@H]1c4[nH]c5ccccc5c4C[C@@]4(O)[C@@H](C2)N(CC2CC2)CC[C@]314 [naltrindole],inhibition that dissipated at high concentrations,,,,,,,
"CNC(=O)[C@@H]1Cc2ccccc2CN1C(=O)[C@H](Cc1c(C)cc(O)cc1C)N(C)C [Compound 13, N,N(Me)2-Dmt-Tic-NHMe]",,359 ± 62,,0.54 ± 0.07,669,0.28 ± 0.02,1268,"bioactivity on GPI (μ), in words (μ receptors): weak μ antagonist; EC50 (μ receptors; μ agonism, read-out: GPI ED50): > 10000 nM; GPI Ke (μ receptors; μ antagonism): 0.39 µM; Kb (μ receptors; μ antagonism, mean (range), read-out: GPI pA2 (range) (converted)): 389 nM; Kb (δ receptors; [6]): 0.407 nM; MVD Ke (δ receptors; [7]): 0.41 nM"
H-Dmt-Sar-Bid [DSB],inactive,,,,,,,
"COC(=O)[C@H](C)NC(=O)[C@@H]1Cc2ccccc2CN1C(=O)[C@@H](N)Cc1c(C)cc(O)cc1C [Compound 19, H-Dmt-Tic-Ala-OMe] (H-[Dmt]-[Tic]-Ala-OMe)",,11.3 ± 1.87,,0.23 ± 0.09,48,0.14 ± 0.04,83,
"C[C@@H](NC(=O)[C@@H](N)Cc1ccc(O)cc1)C(=O)N[C@@H](Cc1ccccc1)C(=O)N[C@@H](Cc1c[nH]c2ccccc12)C(=O)N[C@@H](Cc1ccc(O)cc1)C(=O)N1CCC[C@H]1C(=O)N[C@@H](CCCCN)C(=O)O [[Trp^4,Lys-OH^7]DER, H-Tyr-D-Ala-Phe-Trp-Tyr-Pro-Lys-OH] (H-Y[dA]FWYPK-OH)",inactive,,,,,,,
"Cc1cc(O)cc(C)c1C[C@@H](C(=O)N1Cc2ccccc2C[C@H]1C(=O)O)N1CCCC1 [Compound 4, [des-NH2-α-pyrrolidine-1-yl]-Dmt-Tic-OH]",,814 ± 65,> 10000,1.62 ± 0.19,502,1.42 ± 0.14,573,"bioactivity on MVD (δ), in words (δ receptors): detrimental for all bioactivity measurements on MVD; Kb (δ receptors; [6]): 126 nM; MVD Ke (δ receptors; [7]): 121 nM"
"CC(C)[C@H](NC(=O)[C@H](CCC(=O)O)NC(=O)[C@H](Cc1ccccc1)NC(=O)[C@@H](C)NC(=O)[C@@H](N)Cc1ccc(O)cc1)C(=O)N[C@H](C(=O)NCC(N)=O)C(C)C [deltorphin B, H-Tyr-D-Ala-Phe-Glu-Val-Val-Gly-NH2]",inactive,,,,,,,
"Cc1cc(O)cc(C)c1C[C@H](N)C(=O)N1Cc2ccccc2C[C@@H]1C(=O)NC12CC3CC(CC(C3)C1)C2 [Compound 12, H-Dmt-D-Tic-NH-1-adamantane]",,,1680,,0.01,,0.004,"Ki (μ-opioid receptors): 0.26 ± 0.08 nM; bioactivity on GPI (μ), in words (μ receptors): μM activity on GPI; Ki (δ-opioid receptors [1]): 24.5 ± 4.9 nM; δ affinity, in words (δ-opioid receptors [1]; from Table II binding): lost high δ affinity; δ/μ selectivity, in words (δ-opioid receptors [1]; from Table II binding): moderately μ selective; Ki (δ-opioid receptors [2]): 70.3 ± 7.25 nM; Kb (δ receptors; [8]): > 10000 nM"
"Cc1cc(O)cc(C)c1CC(N)C(=O)N1Cc2ccccc2C[C@H]1C(=O)O (stereo partly drawn) [H-(R,S)Dmt-Tic-OH, reference compound] (H-[ξDmt]-[Tic]-OH)",,1160 ± 327,,,,,,"EC50 (μ receptors; μ agonism, read-out: GPI ED50): > 10000 nM; Kb (δ receptors): 6.76 nM"
"Cc1cc(O)cc(C)c1C[C@H](N)C(=O)N1Cc2ccccc2C[C@H]1CC(=O)O [Compound 1, H-Dmt-βTic-OH]",,418 ± 86,> 10000,0.85 ± 0.2,498,0.71 ± 0.04,590,"bioactivity on MVD (δ), in words (δ receptors): highest δ-antagonist functional bioactivities; Kb (δ receptors; [8]): 1.41 nM; Kb (δ receptors; [6]): 1.58 nM"
